These results are taken from patent publication US11021486B2, “Coumarin-like cyclic compound as MEK inhibitor and use thereof” (CSTONE PHARMACEUTICALS, priority 2017, dated 2021).

Series [1] in a line: Pharmacokinetics study of the compounds in C57BL/6 mice. The format is in vivo. As to conditions: male, mouse, single intravenous and oral dose, plasma; for bioavailability: read-out: Bioavailability F; for AUC: read-out: Comcentration quadrature AUC; for half-life: read-out: Half life T1/2 (converted). As to the method: Biological Test Method 4: Pharmacokinetics Study of the Compounds in C57BL/6 Mice Experimental Materials: C57BL/6 mice (male, 18-22 g, 7-9 weeks old, Shanghai Lingchang) Experimental Procedure: The pharmacokinetic characteristics of the compounds in rodents were determined after intravenous and oral administration of the compounds by standard protocols. In the experiment, candidate compounds were formulated into clear solutions, and intravenously and orally administrated to […] in a single dose. The menstruum for intravenous and oral administration was DMSO, PEG and water at a certain ratio or Solutol, HPMC and SLS aqueous solutions at a certain ratio. The whole blood samples within 24 hours were collected, centrifuged at 3,000 rpm for 15 minutes, and the supernatants were isolated to obtain plasma samples. An acetonitrile solution containing an internal standard with a volume of 4 times as the plasma sample volume was added to precipitate the protein. After centrifugation, the supernatant was collected and an equal volume of water was added. After centrifugation, the supernatant was collected and injected to quantitatively analyze the blood drug concentration by LC-MS/MS analysis method, and the pharmacokinetic parameters were calculated, e.g., peak concentration, peak time, clearance, half-life, area under the drug concentration-time curve, bioavailability, etc.

Series [2] addresses T1, activated MEK1 (Homo sapiens, UniProt Q02750).
T1 construct: purchased Millipore 14-429
Kind of series: MEK Lance Ultra experiment. The format is biochemical. As to conditions: 0.07 nM activated MEK1, 2 nM non-activated ERK, 50 μM ATP; read-out: MEK potency IC50. As to the method: Biological Test Method 1: MEK Lance Ultra Experiment Compounds were serially diluted three-fold to 10 concentrations, two duplicates were set. Final test concentrations of the compounds ranged from 10 μM to 0.51 nM. 0.07 nM activated MEK1 (Millipore #14-429) and 2 nM non-activated ERK (Millipore #14-515) were mixed with the compounds or DMSO, the mixture was incubated at 23° C. for 30 minutes. Then 50 nM ULight labeled MBP (PerkinElmer #TRF0109-M) and 50 μM ATP (Invitrogen #PV3227) were added to initiate the reaction, and the mixture was incubated at 23° C. for 90 minutes. After the reaction was stopped by adding EDTA at a final concentration of 15 mM, 2 nM Eu-labeled anti-phosphorylated antibody (PerkinElmer #TRF0201-M) was added and incubated for 1 hour. The fluorescence signal data (excitation band: 320 nm; emission band: 665 nM/615 nM) was determined by an Envision microplate reader (PerkinElmer). XLfit5 software was used for data analysis and mapping.

For series [3], the system named is HT29 cells. The series is described as follows: Cell viability experiment (Cell Titer-Glo), HT29. The format is cell-based, human. As to conditions: Homo sapiens, HT-29, 72 h. The protocol: (§1) Biological Test Method 2: Cell Viability Experiment
(§2) HT29 and A375 cells were plated in a 96-well cell culture plate at a density of 40,000 cells/well and 20,000 cells/well respectively, and the cells were cultured overnight. The compounds were serially diluted in a gradient of 1:3, the dilutions were added to the cell culture medium, and incubated with the cells in a 37° C. incubator for 3 days. The 96-well cell culture plate was taken from the incubator and equilibrated at room temperature for 30 minutes, then Cell Titer-Glo reagent (Promega Cat #G7573) was added at a ratio of 1:2, and the mixture was mixed thoroughly on a shaker for 2 minutes to promote cell lysis. The cell culture plate was incubated at room temperature for 10 minutes and then read on an Envision microplate reader (PerkinElmer). XLfit5 software was used for data analysis and mapping.
For orientation: ATP-based viability assays read luminescence as a measure of living cells.

Series [4] has as its system A375 cells. Kind of series: Cell viability experiment (Cell Titer-Glo), A375. It is filed as cell-based. As to conditions: Homo sapiens, A-375, 72 h. The protocol:
as §1, §2

Series [5] has as its system HT-29 cell subcutaneous xenograft tumor. Kind of series: In vivo pharmacodynamics study on HT-29 cell subcutaneous xenograft tumor model. Set-up: species or system BALB/c nude mouse. As to conditions: QD. As to the method: Biological Test Method 3: In Vivo Pharmacodynamics Study on HT-29 Cell Subcutaneous Xenograft Tumor Model in BALB/c Nude Mouse
Human colon cancer HT-29 cells (ATCC-HTB-38) were cultured in monolayer in vitro, with McCoy's 5a medium (Gibco, 1835937) supplemented with 10% fetal bovine serum, 100 U/mL penicillin and 100 μg/mL streptomycin, at 37° C. under 5% CO2. The cells were conventionally digested with trypsin-EDTA and passaged twice a week. When the cell saturation was 80%-90%, the cells were collected, counted and inoculated. 0.1 mL (5×10^6) of HT-29 cells was subcutaneously inoculated into the right back of each nude mouse. […] The diameter of the tumor was measured twice a week with a vernier caliper. The tumor volume is calculated by the formula: V=0.5a×b^2, wherein a and b represent the length and width respectively. The antitumor activity of the compounds was evaluated by TGI (%), which reflects the tumor growth inhibition rate. Calculation of TGI (%): TGI (%)=[(1−(average tumor volume at the end of administration in a treatment group−average tumor volume at the start of treatment in this treatment group))/(average tumor volume at the end of treatment in the solvent control group−average tumor volume at the start of treatment in the solvent control group)]×100%.

The mark [6] stands for this setting: HT29 cells, 3 days incubation, read-out: HT29 IC50.
[7] abbreviates: A375 cells, 3 days incubation, read-out: A375 IC50.
[8] abbreviates: read-out: HT29 IC50, HT29 cells, 3 days incubation.
The mark [9] stands for this setting: read-out: A375 IC50, A375 cells, 3 days incubation.

Where two headings read alike, the source gives them in different places.

T1 sequence (Q02750 whole entry): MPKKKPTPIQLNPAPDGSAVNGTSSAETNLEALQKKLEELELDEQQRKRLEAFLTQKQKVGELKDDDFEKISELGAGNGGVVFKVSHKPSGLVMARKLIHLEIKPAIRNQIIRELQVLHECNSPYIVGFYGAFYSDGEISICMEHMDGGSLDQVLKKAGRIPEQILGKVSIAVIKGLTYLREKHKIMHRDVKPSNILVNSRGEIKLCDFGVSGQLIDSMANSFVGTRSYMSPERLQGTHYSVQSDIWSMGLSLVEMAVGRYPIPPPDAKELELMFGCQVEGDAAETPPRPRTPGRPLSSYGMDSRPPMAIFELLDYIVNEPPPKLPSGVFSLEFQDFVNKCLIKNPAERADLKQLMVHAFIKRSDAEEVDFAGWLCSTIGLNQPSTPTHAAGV

The bioavailability is dose-corrected exposure relative to a reference, in per cent. The term IC50 denotes the point on the concentration scale where inhibition reaches its midpoint. Broadly, the TGI is the reduction of tumour growth relative to the control group. Take `Cc1c(NS(C)(=O)=O)cccc1-c1c(C)n(C2CC2)c(=O)c2c(Nc3ccc(I)cc3F)c(C)c(=O)oc12` (single isomer, unassigned) [WX113]: in series [1], the clearance was 2.92 mL/min/kg, the bioavailability amounted to 73.1%, the AUC is 17.6 µM·h and the half-life was 4.64 h. For the same compound, the IC50 in series [2] worked out at 5.61 nM. Also, the IC50 in series [3] (setting [6]) was determined as 0.82 nM. In addition, in series [4] (setting [7]), the IC50 worked out at 0.37 nM. The compound also registered a TGI in series [5] (0.2 mpk, 25 days (5 days administration, and 2 days break)) of 82.8%.
Regarding `CC(=O)Nc1cccc(-c2c(C)n(C3CC3)c(=O)c3c(Nc4ccc(I)cc4F)c(C)c(=O)oc23)c1` [WX034], in series [1], the clearance was determined as 1.84 mL/min/kg, the bioavailability worked out at 68.7%, the AUC was determined as 30.5 µM·h and the half-life was 5.41 h. Further, the IC50 in series [2] worked out at 27.8 nM. For the same compound, the IC50 in series [3] (setting [6]) is 6.39 nM. Also, the IC50 in series [4] (setting [7]) amounted to 1.48 nM. This compound returned a TGI in series [5] (3 mpk, 21 days) of 90.6%.
Turning to `Cc1c(Nc2ccc(I)cc2F)c2c(=O)n(C3CC3)c(C)c(-c3cccc(NS(C)(=O)=O)c3)c2oc1=O` [WX066], in series [1], the clearance came out at 1.85 mL/min/kg, the bioavailability came to 99.2%, the AUC was 28.6 µM·h and the half-life is 7.62 h. Further, in series [2], the IC50 worked out at 77.3 nM. Moreover, the IC50 in series [3] (setting [6]) was determined as 7.44 nM. In series [4] (setting [7]), the IC50 came out at 4.58 nM. The TGI in series [5] (0.5 mpk, 21 days) is recorded as 89%.
On to `Cc1c(Nc2ccc(I)cc2F)c2c(=O)n(C3CC3)c(C)c(-c3cccc(CS(C)(=O)=O)c3)c2oc1=O` [WX071], for which, in series [1], the clearance came to 0.912 mL/min/kg, the bioavailability stood at 83%, the AUC is 58.2 µM·h and the half-life was 5.28 h. Also, in series [2], the IC50 was found to be 66 nM. The IC50 in series [3] (setting [6]) was 4.05 nM. Further, in series [4] (setting [7]), the IC50 is 2.99 nM. The compound further came in with a TGI in series [5] (0.5 mpk, 21 days) of 91%.
For the compound `COC(=O)Nc1cccc(-c2c(C)n(C3CC3)c(=O)c3c(Nc4ccc(I)cc4F)c(C)c(=O)oc23)c1` [WX094], the values for the IC50 in series [2], in series [3] (setting [6]) and in series [4] (setting [7]) were 45.2 nM, 18.9 nM and 5.47 nM, respectively.
For `Cc1c(Nc2ccc(I)cc2F)c2c(=O)n(C3CC3)c(C)c(-c3cccc(NS(=O)(=O)C(C)(C)C)c3)c2oc1=O` [WX095] the same measures were 48.6 nM, 1.77 nM and 0.79 nM.
In the case of `CC(=O)Nc1cccc(-c2c(C)n(C3CC3)c(=O)c3c(Nc4ccc(I)cc4F)c(C)c(=O)oc23)c1C` [WX096], the IC50 in series [2] was found to be 8.73 nM; in series [3] (setting [8]), 10.3 nM; in series [4] (setting [9]), 2.47 nM.
As to `CNCc1cccc(-c2c(C)n(C3CC3)c(=O)c3c(Nc4ccc(I)cc4F)c(C)c(=O)oc23)c1` [WX097], the results for the IC50 in series [2], in series [3] (setting [6]) and in series [4] (setting [7]) were 29.5 nM, 105 nM and 17.2 nM, respectively.
For `Cc1c(Nc2ccc(I)cc2F)c2c(=O)n(C3CC3)c(C)c(-c3cccc(CN(C)C)c3)c2oc1=O` [WX098] the same measures were 28.5 nM, 90.3 nM and 11.9 nM.
`CNC(=O)Nc1cccc(-c2c(C)n(C3CC3)c(=O)c3c(Nc4ccc(I)cc4F)c(C)c(=O)oc23)c1` [WX099]: the figures for the IC50 in series [2], in series [3] (setting [6]) and in series [4] (setting [7]) were 49.1 nM, 12.4 nM and 4.72 nM, respectively.
For `Cc1c(Nc2ccc(I)cc2F)c2c(=O)n(C3CC3)c(C)c(-c3cccc(CS(=O)(=O)CCO)c3)c2oc1=O` [WX100] the same measures were 114 nM, 6.84 nM and 2.11 nM.
For `Cc1c(Nc2ccc(I)cc2F)c2c(=O)n(C3CC3)c(C)c(Cc3cccc(N)c3)c2oc1=O` [WX101] the same measures were 17.4 nM, 12.6 nM and 1.76 nM.
On the same counts, the results for `CC(=O)Nc1cccc(Cc2c(C)n(C3CC3)c(=O)c3c(Nc4ccc(I)cc4F)c(C)c(=O)oc23)c1` [WX102] are 12.3 nM, 2.05 nM and 0.37 nM.
Turning to `Cc1c(Nc2ccc(I)cc2F)c2c(=O)n(C3CC3)c(C)c(-c3cccc(NC(N)=O)c3)c2oc1=O` [WX103], the IC50 came out at 48.9 nM in series [2], 20.3 nM in series [3] (setting [6]) and 6.58 nM in series [4] (setting [7]).
On the same counts, the results for `Cc1c(Nc2ccc(I)cc2F)c2c(=O)n(C3CC3)c(C)c(-c3cccc(NC(=O)NC(C)(C)C)c3)c2oc1=O` [WX104] are 119 nM, 28.1 nM and 10.4 nM.
With `Cc1c(Nc2ccc(I)cc2F)c2c(=O)n(C3CC3)c(C)c(-c3ccnc(NS(C)(=O)=O)c3)c2oc1=O` [WX105], the IC50 in series [2] is 282 nM; in series [3] (setting [6]), 16.2 nM; in series [4] (setting [7]), 8.19 nM.
Take `Cc1c(CS(C)(=O)=O)cccc1-c1c(C)n(C2CC2)c(=O)c2c(Nc3ccc(I)cc3F)c(C)c(=O)oc12` [WX106]: the IC50 in series [2] came out at 29.9 nM; in series [3] (setting [8]), 5.89 nM; in series [4] (setting [9]), 2.32 nM.
In the case of `Cc1c(CS(=O)(=O)C2CC2)cccc1-c1c(C)n(C2CC2)c(=O)c2c(Nc3ccc(I)cc3F)c(C)c(=O)oc12` [WX108], the IC50 in series [2] is 29.6 nM; in series [3] (setting [8]), 13.1 nM; in series [4] (setting [9]), 2.3 nM.
On to `Cc1c(CS(C)(=O)=O)cccc1-c1c(C)n(C)c(=O)c2c(Nc3ccc(I)cc3F)c(C)c(=O)oc12` [WX109], for which the IC50 stood at 119 nM in series [2], 90.7 nM in series [3] (setting [6]) and 29.2 nM in series [4] (setting [7]).
Turning to `CCc1c(Nc2ccc(I)cc2F)c2c(=O)n(C3CC3)c(C)c(-c3cccc(CS(C)(=O)=O)c3C)c2oc1=O` [WX110], the IC50 is 93.6 nM in series [2], 207 nM in series [3] (setting [6]) and 94.5 nM in series [4] (setting [7]).
On the same counts, the results for `Cc1ccccc1-c1c(C)n(C2CC2)c(=O)c2c(Nc3ccc(I)cc3F)c(C)c(=O)oc12` [WX111] are 14.4 nM, 14.9 nM and 3.56 nM.
With `Cc1c(Nc2ccc(I)cc2F)c2c(=O)n(C3CC3)c(C)c(-c3cccc(C(N)=O)c3)c2oc1=O` [WX112], the results for the half-maximal inhibitory concentration (IC50) in series [2], in series [3] (setting [6]) and in series [4] (setting [7]) were 52.9 nM, 20.3 nM and 6.04 nM, respectively.
As for `CC(=O)Nc1cncc(-c2c(C)n(C3CC3)c(=O)c3c(Nc4ccc(I)cc4F)c(C)c(=O)oc23)n1` [WX115], the IC50 in series [2] was determined as 40.3 nM; in series [3] (setting [6]), 15.7 nM; in series [4] (setting [7]) it was 5.09 nM.
